# Tests used:
# Type in all cases: in vivo
# [1] = test system: MOLT4 xenograft tumor model; assay: Human acute lymphoblastic leukemia MOLT4 cell subcutaneous xenograft tumor model
# Procedure: (§1) Human acute lymphoblastic leukemia cells MOLT4 (Cat. No.: ECACC-85011413) were in vitro suspended and cultured in RPMI 1640 medium containing 10% fetal bovine serum, 100 U/mL penicillin and 100 μg/mL streptomycin, in a 37° C. and 5% CO2 incubator. When the cell saturation achieved 80%-90% and the cell number reached the requirement, the cells were collected, counted and inoculated.
# 0.2 mL (10×10^6) of MOLT4 cells (added with Matrigel at a volume ratio of 1:1) were subcutaneously inoculated on the right back of each mouse. The grouping administration was started when the average tumor volume reached about 148 mm^3.
# The changes of tumor volume and tumor weight in each group after administration of test drugs for treating SCID Beige mice with MOLT4 cell subcutaneous xenograft tumor are shown in Table 10 and Table 11.
# [2] = test system: A2058 xenograft tumor model; assay: Human melanoma A2058 cell subcutaneous xenograft tumor model; conditions: azvudine 1 mg/kg, dacarbazine 60 mg/kg, combination 1 + 60 mg/kg
# Procedure: Human melanoma cells A2058 (Cat. No.: CRL-11147) were cultured in vitro as a monolayer in DMEM medium containing 10% fetal bovine serum, 100 U/mL penicillin and 100 μg/mL streptomycin, in a 37° C. and 5% CO2 incubator. The cells were routinely digested with trypsin-EDTA and passaged twice a week. When the cell saturation reached 80%-90% and the cell number achieved the requirement, the cells were collected, counted and inoculated.
# 0.2 mL (5×10^6) of A2058 cells were added with Matrigel, and the mixture was subcutaneously inoculated on the right back of each mouse. The grouping administration was started when the average tumor volume reached about 136 mm^3.
# [3] = test system: Daudi xenograft tumor model; assay: Human Burkitt's lymphoma cell Daudi subcutaneous xenograft tumor model; conditions: combination 1 + 50 mg/kg; for Tumor volume (mm^3) on the 27th day: CB 17 SCID mice, QD x 4 weeks, azvudine 1 mg/kg p.o., cyclophosphamide 50 mg/kg i.p.
# Procedure: as §1, with “Burkitt's lymphoma” for “acute lymphoblastic leukemia”, “Daudi” for “MOLT4”, “DSMZ-ACC129)” for “ECACC-85011413)”, “serum, 2 mM glutamine,” for “serum,”
# 0.2 mL (10×10^6) of Daudi cells (added with Matrigel at a volume ratio of 1:1) were subcutaneously inoculated on the right back of each mouse. The grouping administration was started when the average tumor volume reached about 100 mm^3.
# The changes of tumor volume and tumor weight in each group after administration of test drugs for treating CB 17 SCID mice with Daudi cell subcutaneous xenograft tumor are shown in Table 8 and Table 9 respectively.
# [4] = test system: OVCAR-8 human ovarian cancer model; assay: OVCAR-8 human ovarian cancer subcutaneous xenograft tumor model; conditions: azvudine 1 mg/kg, paclitaxel 15 mg/kg, avastin 10 mg/kg, combinations 1 + 15 and 1 + 10 mg/kg
# Procedure: OVCAR-8 cells were cultured in RPMI1640 medium containing 10% fetal bovine serum. OVCAR-8 cells in the exponential growth phase were collected, resuspended in PBS to an appropriate concentration and mixed with Matrigel at a ratio of 1:1. The resulting mixture was used for subcutaneous inoculation of tumor in mice.
# 1×10^7 OVCAR-8 cells were inoculated subcutaneously on the right side of female mice. When the average tumor volume achieved 174.25 mm^3, the mice were randomly divided into groups according to tumor size.
# The experimental protocols for animal experiments in this experiment were reviewed and approved by the CrownBio IACUC committee. During the experiment, the animal experiments were performed in accordance with the requirements of AAALAC. After tumor inoculation was completed, the impact of tumor growth and treatment on normal behavior of animals was routinely monitored, specifically the activity of experimental animals, food intake and water intake, body weight gain or loss (body weight was measured twice a week), eye, hair and other abnormalities. The clinical symptoms observed during the experiment were recorded in the original data. The tumor volume was calculated according to the following formula: tumor volume (mm^3)=½×(a×b^2) (where a represents long diameter and b represents short diameter).
# Relative tumor proliferation rate, T/C %, refers to the percentage value of the relative tumor volume or tumor weight of the treatment group and the control group at a certain time point, which was calculated as follows: • T/C %=TRTV/CRTV×100% (TRTV: the average RTV of the treatment group; CRTV: the average RTV of the vehicle control group; RTV=Vt/V0, where V0 is the tumor volume of the animal when grouped, and Vt is the tumor volume of the animal after treatment); • or T/C %=TTW/CTW×100% (TTW: the average tumor weight of the treatment group at the end of the experiment; CTW: the average tumor weight of the vehicle control group at the end of the experiment).
# Relative tumor inhibition rate, TGI (%), was calculated according to the formula as follows: TGI %=(1−T/C)×100%. (T and C are the relative tumor volumes (RTV) or tumor weights (TW) of the treatment group and the control group at a specific time point).
# To compare tumor volumes of different treatment groups on a given day, first the assumption of homogeneity of variance among all groups was tested using the Bartlett test. When the p-value of Bartlett's test was not less than 0.05, whether all group means were equal was tested using one-way ANOVA. If the p-value of the one-way ANOVA was less than 0.05, pairwise comparisons among all groups were conducted using Tukey's HSD test, or pairwise comparisons between each treatment group and control group were conducted using Dunnett's t-test. When the p-value of Bartlett's test was less than 0.05, whether the medians of all groups were equal was tested using Kruskal Wallis test. If the p-value of the Kruskal Wallis test was less than 0.05, pairwise comparisons among all groups or between each treatment group and control group were conducted using Conover test, and the corresponding p-value correction was performed according to the number of groups in the multiple test.
# [5] = 28th day after start of administration, azvudine 1 mg/kg
# [6] = based on tumor volume, 28th day, azvudine 2 mg/kg in Table 10, cyclophosphamide 50 mg/kg, combination 1 + 50 mg/kg
# [7] = based on tumor volume, 14th day
# [8] = based on tumor volume, 27th day, azvudine 1 mg/kg, cyclophosphamide 50 mg/kg
smiles,measurement,setting,value
"[N-]=[N+]=N[C@]1(CO)O[C@@H](n2ccc(N)nc2=O)[C@@H](F)[C@@H]1O [Azvudine, azvudine]",T/C,[1]; [5],33.89
same,TGI,[1]; [5],69.73%
same,Tumor volume,[1]; [5],979 mm^3
same,Tumor volume (mm^3) on the 28th day,"[1]; 28th day of administration, SCID Beige mice, QD x 4 weeks, azvudine 2 mg/kg in Table 10, cyclophosphamide 50 mg/kg i.p., combination 1 + 50 mg/kg",986 ± 179 mm^3
same,Tumor weight (g) (On the 28th day),"[1]; 28th day of administration, azvudine 1 mg/kg, cyclophosphamide 50 mg/kg, combination 1 + 50 mg/kg",1.168 ± 0.145 g
same,T/C (%),[1]; [6],33.55%
same,TGI (%),[1]; [6],69.49%
same,T/Cweight (%),"[1]; based on tumor weight, 28th day, azvudine 1 mg/kg, cyclophosphamide 50 mg/kg, combination 1 + 50 mg/kg",39.31%
same,Tumor volume (mm^3) on the 14th day,"[2]; 14th day of administration, listed as azvudine",2253 mm^3
same,T/C (%),[2]; [7],79.67%
same,TGI (%),[2]; [7],18.22%
same,Tumor volume (mm^3) on the 27th day,[3]; 27th day of administration,909 ± 120 mm^3
same,Tumor volume (mm^3) on the 27th day,"[3]; 27th day of administration, listed as azvudine",909 mm^3
same,Tumor weight (g) (On the 27th day),"[3]; 27th day of administration, azvudine 1 mg/kg, cyclophosphamide 50 mg/kg",0.996 ± 0.143 g
same,T/C (%),[3]; [8],30.64%
same,TGI (%),[3]; [8],71.09%
same,T/Cweight (%),"[3]; based on tumor weight, 27th day, azvudine 1 mg/kg, cyclophosphamide 50 mg/kg",33.38%
same,T/C (%),[4]; 34th day after grouping,81.91%
same,TGI (%),[4]; 34th day after grouping,18.09%
same,Tumor volume (x ± S),[4]; 34th day after grouping,460.67 ± 105.37(6)
same,average tumor volume,[4]; 34th day of administration,460.67 mm^3
